# Data: PMC8688338 (Molecular microbiology, 2021)
# Values joined by “and” are separate entries in the source; they are usually repeats but may differ in a detail not shown here. Equal entries are not always repeated. Where two headings read alike, the source gives them in different places.
# Experiments:
# [1] = biological target: TvagENT3 (Trichomonas vaginalis, UniProt A2E5Q3); assay: [3H]-cytidine uptake by T. brucei TbAT1-KO cells expressing TvagENT3; settings: for inhibition of cytidine uptake: 0.5 µM [3H]-cytidine
# [2] = test system: T. vaginalis; settings: cited from earlier work
# [3] = biological target: low affinity pyrimidine nucleobase transporter of T. vaginalis; assay: [3H]-uracil transport in T. vaginalis trophozoites; type: cell-based, Trichomonas vaginalis; settings: for Ki: read-out: Ki,app
# [4] = test system: T. vaginalis adenine transporter; assay: [3H]-adenine transport in T. vaginalis trophozoites; type: cell-based, Trichomonas vaginalis; settings: for Km: read-out: Km,app
# [5] = test system: T. vaginalis nucleoside transporters, Adenosine (LA); assay: Low affinity adenosine transport; type: cell-based, Trichomonas vaginalis; settings: for inhibition of transport: 20 µM [3H]-adenosine, highest tested concentration: guanosine 250 µM, adenine 1 mM, hypoxanthine 1 mM, uracil 10 mM; for Ki: read-out: Ki,app, average and SEM; for Ki / EC50: inhibition of 20 µM [3H]-adenosine transport; for EC50: single experiment, Fig. 4
# [6] = biological target: T. vaginalis nucleoside transporters, Adenosine (HA); assay: High affinity [3H]-adenosine transport in T. vaginalis trophozoites; type: cell-based, Trichomonas vaginalis
# [7] = test system: T. vaginalis nucleoside transporters, Thymidine (HA); assay: Higher affinity [3H]-thymidine transport; type: cell-based, Trichomonas vaginalis; settings: for EC50: single experiment
# [8] = biological target: T1, TvagENT6 (Trichomonas vaginalis, UniProt A2EMT5)
# [9] = biological target: T. vaginalis nucleoside transporters, Uridine (HA); assay: [3H]-uridine transport in T. vaginalis trophozoites; type: cell-based, Trichomonas vaginalis; settings: for Km: read-out: Km,app, Uridine (HA)
# [10] = test system: T. vaginalis nucleoside transporters, Cytidine (LA); assay: Low affinity cytidine transport in T. vaginalis trophozoites; type: cell-based, Trichomonas vaginalis; settings: Cytidine (LA); average and SEM
# [11] = biological target: T. vaginalis nucleoside transporters, Guanosine (HA); assay: [3H]-guanosine transport in T. vaginalis trophozoites; type: cell-based, Trichomonas vaginalis; settings: for Ki: read-out: Ki,app, inhibition of [3H]-guanosine transport, monophasic sigmoid curve
# [12] = test system: T. vaginalis nucleoside transporters, Cytidine (HA); assay: High affinity [3H]-cytidine transport in T. vaginalis trophozoites; type: cell-based, Trichomonas vaginalis; settings: for Km: read-out: Km,app, […] [3H]-cytidine; for Ki: read-out: Ki,app, inhibition of […] [3H]-cytidine transport, 30 s
# [13] = test system: T. vaginalis trophozoites; assay: Preliminary uptake of cytosine and thymine by T. vaginalis trophozoites; type: cell-based, Trichomonas vaginalis; settings: preliminary experiments
# [14] = biological target: T. vaginalis nucleoside transporters, Inosine (LA); assay: Low affinity [3H]-inosine transport in T. vaginalis trophozoites; type: cell-based, Trichomonas vaginalis; settings: for Ki: read-out: Ki,app; for Km: read-out: Km,app
# [15] = test system: T. vaginalis nucleoside transporters; settings: ref Harris et al., 1988; cited from earlier work
# [16] = biological target: T1, TvagENT6; assay: cell-based
# [17] = test system: Nc1ccn([C@@H]2O[C@H](CO)[C@@H](O)[C@H]2O)c(=O)n1; assay: cells, lysate or membranes
# [18] = single experiment, Fig. 6E inset
# [19] = read-out: Ki,app, inhibition of […] [3H]-adenosine transport, 30 s, monophasic, average and SEM
# [20] = inhibition of 0.5 µM [3H]-uracil uptake
# [21] = inhibition of 1 µM [3H]-inosine uptake, average and SEM
# [22] = inhibition of 0.125 µM [3H]-thymidine uptake, Fig. 3C/D
# [23] = read-out: Ki,app, low affinity component
compound,measurement,setting,value
"2’F,2’-deoxyadenosine",Hill slope,[1],−0.97± 0.15
same,Ki,"[1]; read-out: Ki,app",1.11 ± 0.38 µM
same,antitrichomonal activity,"[2]; ref Shokar et al., 2012",strong antitrichomonal activity
"Nc1ncnc2c1ncn2[C@@H]1O[C@H](CO)[C@@H](O)[C@@H]1F [2′-F,2′-deoxyarabinoadenosine]",antitrichomonal activity,"[2]; ref Shokar et al., 2012",strong antitrichomonal activity
O=c1[nH]cc(F)c(=O)[nH]1 [5F-uracil],Ki,[3],265 ± 57 µM
Nc1ncnc2c1ncn2[C@@H]1O[C@H](CO)[C@@H](O)[C@@H]1O [adenine arabinoside],antitrichomonal activity,"[2]; ref Shokar et al., 2012",strong antitrichomonal activity
Nc1ncnc2nc[nH]c12 [adenine],EC50,[4],0.35 µM
same,rate of transport,[4]; 50 nM [3H]-adenine,0.00073 pmol(10^7 cells)^−1s^−1
same,rate of transport in the presence of unlabelled permeant,[4]; 50 nM [3H]-adenine + 1 mM unlabelled adenine,0.000097 pmol(10^7 cells)^−1s^−1
same,inhibition of uptake,[4]; 50 nM [3H]-adenine by 1 mM unlabelled adenine,86.7%
same,Vmax,"[4]; 50 nM [3H]-adenine, average",0.091 ± 0.027 pmol(10^7 cells)^−1s^−1
same,rate of transport,[4]; 1 µM [3H]-adenine,0.0164 pmol(10^7 cells)^−1s^−1 and 0.016 pmol(10^7 cells)^−1s^−1
same,rate of transport in the presence of unlabelled permeant,[4]; 1 µM [3H]-adenine + 1 mM unlabelled adenine,0.00429 pmol(10^7 cells)^−1s^−1
same,inhibition of uptake,[4]; 1 µM [3H]-adenine by 1 mM unlabelled adenine,73.8%
same,EC50,"[4]; inhibition of [3H]-adenine uptake, single experiment, Fig. 6E",0.27 µM
same,EC50,"[4]; read-out: EC50, high affinity component, two transporter model, Fig. 6F",0.23 µM
same,EC50,"[4]; read-out: EC50, lower affinity component, two transporter model, Fig. 6F, large degree of uncertainty",17 µM
same,Km,"[4]; 50 nM [3H]-adenine, high-affinity system, average",0.41 ± 0.097 µM
same,Km,[4]; [18],0.23 µM
same,Vmax,[4]; [18],0.155 pmol(10^7 cells)^−1s^−1
same,share of flux of high affinity component,"[4]; two transporter model, Fig. 6F",81%
same,inhibition of transport,[5],≤ 50%
same,Ki,[5],> 1000 µM
same,Ki,"[6]; read-out: Ki,app, inhibition of […] [3H]-adenosine transport",> 1000 µM
same,Ki,[6]; [19],~1000 µM
same,inhibition of transport,"[7]; 125 nM [3H]-thymidine, nucleobase at 1 mM",≤ 50%
same,inhibition of transporter,[8]; adenine up to 1 mM,not significantly inhibited
Nc1ccn([C@@H]2O[C@H](CO)[C@@H](O)[C@H]2O)c(=O)n1 [cytidine],Ki,"[9]; read-out: Ki,app, inhibition of 0.5 µM [3H]-uridine transport, 30 s, average and SEM",15.6 ± 2.3 µM
same,Vmax,[10],6.7 ± 1.8 pmol(10^7 cells)^−1s^−1
same,Ki,[11]; average and SEM,18.6 ± 0.9 µM
same,inhibition of cytidine uptake,[1]; 1 mM unlabelled cytidine,strongly inhibited
same,Vmax,"[1]; single experiment, Fig. 10D inset",0.042 pmol(10^7 cells)^−1s^−1
same,Hill slope,"[1]; single experiment, Fig. 10D-F",−0.99
same,inhibition of uptake,[12]; 0.25 µM [3H]-cytidine by 1 mM unlabelled cytidine,97.0%
same,rate of transport,"[12]; 0.25 µM [3H]-cytidine, no inhibitor",0.026 ± 0.001 pmol(10^7 cells)^−1s^−1
same,Vmax,"[12]; Cytidine (HA), average and SEM",0.83 ± 0.06 pmol(10^7 cells)^−1s^−1
same,Km,"[12]; Cytidine (HA), average and SEM",7.19 ± 1.77 µM
same,Km,"[12]; Cytidine (HA), average and SEM, listed as Cytidine",7.2 ± 1.8 µM
same,EC50,[5],290 µM
same,Ki,[5],116 ± 5 µM
same,Ki,[6]; [19],17.9 ± 4.4 µM
same,EC50,"[7]; read-out: EC50, higher affinity component, 0.125 µM [3H]-thymidine, 2-transporter plot, Fig. 3D",2.86 µM
same,EC50,"[7]; read-out: EC50, lower affinity component, 0.125 µM [3H]-thymidine, 2-transporter plot, Fig. 3D",322 µM
Nc1cc[nH]c(=O)n1 [cytosine],Ki,[3]; [20],334 ± 73 µM
same,saturable uptake,[13]; cytosine 0.25 µM over 120 s,not significant
Nc1ncnc2c([C@@H]3O[C@H](CO)[C@@H](O)[C@H]3O)[nH]nc12 [formycin A],antitrichomonal activity,"[2]; ref Munagala and Wang, 2003",strong antitrichomonal activity
Nc1nc2c(ncn2[C@@H]2O[C@H](CO)[C@@H](O)[C@H]2O)c(=O)[nH]1 [guanosine],Ki,[14]; [21],7.41 ± 2.92 µM
same,Ki,"[14]; inhibition of 1 µM [3H]-inosine uptake, average and SEM, listed as Guanosine",7.4 ± 2.9 µM
same,rate of transport,[11]; 1 µM [3H]-guanosine,0.22 ± 0.01 pmol(10^7 cells)^−1s^−1
same,rate of transport in the presence of unlabelled permeant,[11]; 1 µM [3H]-guanosine + 0.25 mM unlabelled guanosine,0.0030 ± 0.0004 pmol(10^7 cells)^−1s^−1
same,reduction of uptake,[11]; 1 µM [3H]-guanosine by 250 µM guanosine,98.6%
same,Vmax,"[11]; Guanosine (HA), average and SEM",0.91 ± 0.25 pmol(10^7 cells)^−1s^−1
same,Km,"[11]; read-out: Km,app, Guanosine (HA), average and SEM",9 ± 0.6 µM
same,Hill slope,[1],−1.33 ± 0.09
same,Ki,[1],2.9 ± 0.14 µM
same,Ki,[12]; average and SEM,16.7 ± 2.6 µM
same,inhibition of transport,[5],≤ 50%
same,Ki,[5],> 250 µM
same,Ki,[6]; [19],12.2 ± 2.4 µM
same,Km,[15],13.9 µM
same,EC50,[7]; [22],51.2 µM
O=c1[nH]cnc2c1ncn2[C@@H]1O[C@H](CO)[C@@H](O)[C@H]1O [inosine],Ki,[16],40 ± 9.5 µM
same,Ki,[9]; [23],231 ± 23 µM
same,rate of uptake,[14]; 1 µM [3H]-inosine,0.0081 ± 0.0002 pmol(10^7 cells)^−1s^−1
same,inhibition of uptake,"[14]; 1 µM [3H]-inosine time course, 1 mM unlabelled nucleoside",88%
same,rate of uptake,"[14]; 1 µM [3H]-inosine, listed as Inosine",0.0081 pmol(10^7 cells)^−1s^−1
same,Vmax,"[14]; Inosine (LA), average and SEM",2.25 ± 0.37 pmol(10^7 cells)^−1s^−1
same,EC50,"[14]; inhibition of 1 µM [3H]-inosine uptake, single experiment, Fig. 5B",67.1 µM
same,Km,"[14]; Inosine (LA), 1 µM [3H]-inosine, average and SEM",196 ± 18 µM
same,Km,"[14]; single experiment, Fig. 5B inset",157 µM
same,Hill slope,[1],−1.08 ± 0.02
same,inhibition of cytidine uptake,[1]; inhibitor at 400 µM,completely
same,Hill slope,"[1]; single experiment, Fig. 10D-F",−1.07
same,Ki,[6]; [23],347 ± 127 µM
same,inhibition of uracil transport,"[3]; uridine, thymidine up to 10 mM, adenosine, inosine up to 1 mM",unable to inhibit
Cc1c[nH]c(=O)[nH]c1=O [thymine],Ki,[3]; [20],57 ± 8 µM
same,saturable uptake,[13]; thymine 0.5 µM over 120 s,not significant
O=c1ccn([C@@H]2O[C@H](CO)[C@@H](O)[C@H]2O)c(=O)[nH]1 [uridine],Km,"[9]; 30 s, average and SEM",5.49 ± 1.8 µM
same,Km,"[9]; 30 s, average and SEM, listed as Uridine",5.5 ± 1.8 µM
same,Ki,[14]; [21],3.6 ± 1.1 µM
same,Ki,[11]; average and SEM,7.8 ± 1.3 µM
same,Ki,[1],11.3 ± 1.8 µM
same,inhibition of cytidine uptake,[1]; inhibitor at 400 µM,completely
same,Hill slope,"[1]; inhibition of 0.5 µM [3H]-cytidine transport by TvagENT3, average",−0.98 ± 0.08
same,Hill slope,"[1]; single experiment, Fig. 10D-F",−0.93
same,Ki,[12]; average and SEM,1.98 ± 0.5 µM
same,Ki,"[12]; average and SEM, listed as Uridine",2 ± 0.5 µM
same,EC50,[5],519 µM
same,Ki,[5],376 ± 63 µM
same,Ki,[6]; [19],3.7 ± 1 µM
same,Km,[15],2.5 µM
same,EC50,[7]; [22],15.3 µM
same,Vmax,"[8]; [3H]-uridine in the presence of 250 µM uracil, average",0.092 ± 0.021 pmol(10^7 cells)^−1s^−1
TvagENT3 (Trichomonas vaginalis G3),Km,"[17]; other: 0.5 µM [3H]-cytidine, TvagENT3 in T. brucei TbAT1-KO, average",10.2 ± 2.6 µM
same,Km,"[17]; other: single experiment, Fig. 10D inset",10.9 µM
